From US6420419B1, “L-ascorbic acid 2-phosphate zinc salt and process for manufacturing the same” (Showa Denko Kabushiki Kaisha, priority 1997, dated 2002)

Legend:
Solubility in water = assay type: physicochemical
B. subtilis (168 strain) = assay: Antimicrobial effect, turbidity in NUTRIENT BROTH; assay type: cell-based; parameters: key: “+” indicates that turbidity increased after incubation; “−” indicates no increase in turbidity; conditions: 0.1% salt, pH 6.8, about 10^7 cells/ml, 37° C. for 24 hours
Method: (§1) To NUTRIENT BROTH (produced by DIFCO), 0.1% of an L-ascorbic acid 2-phosphate salt was added thereto, and the pH was adjusted to 6.8 using hydrochloric acid or sodium hydroxide. Using 5 ml of the medium thus prepared, test bacterium were inoculated in a concentration of about 10^7 cells/ml and incubated in a test tube at 37° C. for 24 hours. […] As a control, the same test was performed using a medium not containing an L-ascorbic acid 2-phosphate salt.

E. coli (K-12 strain) = assay: Antimicrobial effect, turbidity in NUTRIENT BROTH; assay type: cell-based; parameters: key: “+” indicates that turbidity increased after incubation; “−” indicates no increase in turbidity; conditions: 0.1% salt, pH 6.8, about 10^7 cells/ml, 37° C. for 24 hours
Method: as §1

[1] = Stability in buffer solution, storage at 50° C. for 476 hours, HPLC; assay type: physicochemical; conditions: for Stability (100% = concentration before storage) pH: 8: about 0.1% in 50 mM Tris-HCl, pH: 8, stored at 50° C. for 476 hours; for Stability (100% = concentration before storage) pH: 5: about 0.1% in 50 mM acetic acid-NaOH, pH: 5, stored at 50° C. for 476 hours
Method: In the Examples and Test Examples, the analysis of an L-ascorbic acid 2-phosphate salt or an ion thereof was performed using an Ap-containing solution having a known concentration (prepared from L-ascorbic acid 2-phosphate magnesium salt) as a standard by an HPLC method using a Shodex IEC DEAE-825 resin (ammonium acetate 10 mM→1M gradient, detected spectrophotometrically at 265 nm). The elemental analysis was performed by an ICP emission method, flame photometry and an ion chromatography method. Unless otherwise indicated, the reagents used herein were commercially available reagents.
The stability of L-ascorbic acid 2-phosphate zinc salt was compared to that of L-ascorbic acid 2-phosphate magnesium salt. Each salt was dissolved in a buffer solution (50 mM acetic acid-NaOH, pH: 5, or 50 mM Tris-HCl, pH: 8). to a concentration of about 0.1% and stored at 50° C. for 476 hours. The concentrations of the L-ascorbic acid 2-phosphate before and after storage were analyzed by the HPLC method.

[2] = in water; background statement on conventionally known salts; cited from earlier work
[3] = listed as L-ascorbic acid 2-phosphate zinc salt (Example 1)
[4] = listed as L-ascorbic acid 2-phosphate zinc salt (Example 2)

| Compound | Increase in turbidity after incubation, B. subtilis (168 strain) (B. subtilis (168 strain)) | Increase in turbidity after incubation, E. coli (K-12 strain) (E. coli (K-12 strain)) | Concentration of aqueous solution that can be formed [2] | also measured |
| --- | --- | --- | --- | --- |
| O=C1O[C@H]([C@@H](O)CO)C(O)=C1OP(=O)([O-])[O-].[Zn+2] [L-ascorbic acid 2-phosphate zinc salt] |  |  |  | Concentration of aqueous solution easily formed (Solubility in water): ≥ 50 wt % |
| O=C1O[C@H]([C@@H](O)CO)C(O)=C1OP(=O)([O-])[O-].[Zn+2] [Example 1, L-ascorbic acid 2-phosphate zinc salt] | − | − |  | Stability (100% = concentration before storage) pH: 8 [1, 3]: 93%; Stability (100% = concentration before storage) pH: 5 [1, 3]: 91% |
| O=C1O[C@H]([C@@H](O)CO)C(O)=C1OP(=O)([O-])[O-].[Mg+2] [L-ascorbic acid 2-phosphate magnesium salt] | + | + | < 30% | Stability (100% = concentration before storage) pH: 8 [1]: 95%; Stability (100% = concentration before storage) pH: 5 [1]: 82% |
| O=C1O[C@H]([C@@H](O)CO)C(O)=C1OP(=O)([O-])[O-].[Na+].[Na+] [Sodium salt, Sodium L-ascorbic acid 2-phosphate] | + | + | about 30% |  |
| O=C1O[C@H]([C@@H](O)CO)C(O)=C1OP(=O)([O-])[O-].[Zn+2] [Example 2, L-ascorbic acid 2-phosphate zinc salt] |  |  |  | Stability (100% = concentration before storage) pH: 8 [1, 4]: 95%; Stability (100% = concentration before storage) pH: 5 [1, 4]: 92% |
